Test results as given in PubChem BioAssay AID248 (DTP/NCI, 2004).
Inconclusive results and toxic doses are left out.

Tested on: L1210 leukemia ip in BDF1 mice, survival T/C
Experiment: NCI In Vivo Anticancer Drug Screen. Data for tumor model L1210 Leukemia (intraperitoneal) in B6D2F1 (BDF1) mice
Conditions: endpoint: mean survival time, higher = longer survival
How it was run: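 Read-out is survival time, reported as the treated-group measurement over the vehicle-control measurement.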

[1] = dose: 12.5 mg/kg/injection, schedule: Q04DX003 (ip), vehicle: saline
[2] = dose: 25.0 mg/kg/injection, schedule: Q04DX003 (ip), vehicle: saline
[3] = dose: 100.0 mg/kg/injection, schedule: Q04DX002 (ip), vehicle: Klucel (hydroxypropylcellulose) (HPC)
[4] = dose: 200.0 mg/kg/injection, schedule: Q04DX002 (ip), vehicle: Klucel (hydroxypropylcellulose) (HPC)
[5] = dose: 100.0 mg/kg/injection, schedule: Q04DX003 (ip), vehicle: saline with Tween-80
[6] = dose: 100.0 mg/kg/injection, schedule: Q01DX009 (ip), vehicle: Klucel (hydroxypropylcellulose) (HPC)
[7] = dose: 200.0 mg/kg/injection, schedule: Q01DX009 (ip), vehicle: Klucel (hydroxypropylcellulose) (HPC)
[8] = dose: 400.0 mg/kg/injection, schedule: Q01DX009 (ip), vehicle: Klucel (hydroxypropylcellulose) (HPC)
[9] = dose: 100.0 mg/kg/injection, schedule: Q04DX003 (ip), vehicle: Klucel (hydroxypropylcellulose) (HPC)
[10] = dose: 200.0 mg/kg/injection, schedule: Q04DX003 (ip), vehicle: Klucel (hydroxypropylcellulose) (HPC)

Compound: O=C(Nc1ccc(NC(=O)c2ccc(C3=NCCN3)cc2)cc1)Nc1ccc(C2=NCCN2)cc1
- T/C (dose: 6.25 mg/kg/injection, schedule: Q01DX Z (ip), vehicle: carboxymethylcellulose (CMC)): 117 % of control
- T/C (dose: 25.0 mg/kg/injection, schedule: Q01DX Z (ip), vehicle: carboxymethylcellulose (CMC)): 206 % of control
- T/C (dose: 50.0 mg/kg/injection, schedule: Q01DX Z (ip), vehicle: carboxymethylcellulose (CMC)): 268 % of control
- T/C (dose: 62.0 mg/kg/injection, schedule: Q01DX Z (ip), vehicle: carboxymethylcellulose (CMC)): 282 % of control
- T/C (dose: 62.0 mg/kg/injection, schedule: Q01DX Z (oral), vehicle: carboxymethylcellulose (CMC)): 120 % of control
- T/C (dose: 100.0 mg/kg/injection, schedule: Q01DX Z (ip), vehicle: carboxymethylcellulose (CMC)): 106 % of control
- T/C (dose: 125.0 mg/kg/injection, schedule: Q01DX Z (ip), vehicle: carboxymethylcellulose (CMC)): 214 % of control
- T/C (dose: 125.0 mg/kg/injection, schedule: Q01DX Z (oral), vehicle: carboxymethylcellulose (CMC)): 97 % of control
- T/C (dose: 150.0 mg/kg/injection, schedule: Q01DX Z (ip), vehicle: carboxymethylcellulose (CMC)): 94 % of control
- T/C (dose: 175.0 mg/kg/injection, schedule: Q01DX Z (ip), vehicle: carboxymethylcellulose (CMC)): 115 % of control
- T/C (dose: 250.0 mg/kg/injection, schedule: Q01DX Z (ip), vehicle: carboxymethylcellulose (CMC)): 109 % of control
- T/C (dose: 250.0 mg/kg/injection, schedule: Q01DX Z (oral), vehicle: carboxymethylcellulose (CMC)): 103 % of control
- T/C (dose: 300.0 mg/kg/injection, schedule: Q01DX Z (oral), vehicle: carboxymethylcellulose (CMC)): 103 % of control

Compound: Nc1nc(-c2ccccc2)c(CCCO)c(=O)[nH]1
- T/C (dose: 100.0 mg/kg/injection, schedule: Q01DX001 (ip), vehicle: Klucel (hydroxypropylcellulose) (HPC)): 102 % of control
- T/C (dose: 200.0 mg/kg/injection, schedule: Q01DX001 (ip), vehicle: Klucel (hydroxypropylcellulose) (HPC)): 102 % of control
- T/C (dose: 400.0 mg/kg/injection, schedule: Q01DX001 (ip), vehicle: Klucel (hydroxypropylcellulose) (HPC)): 98 % of control

Compound: Cc1cc[n+](Cc2ccccc2)cc1
- T/C [1]: 96 % of control
- T/C [2]: 90 % of control

Compound: CC1OC(C)C(Cl)C1Cl (stereo not drawn)
- T/C (dose: 50.0 mg/kg/injection, schedule: Q04DX002 (ip), vehicle: Klucel (hydroxypropylcellulose) (HPC)): 110 % of control
- T/C [3]: 95 % of control
- T/C [4]: 100 % of control

Compound: Cc1cc(N=CN(C)C)c2ccccc2n1
- T/C (dose: 25.0 mg/kg/injection, schedule: Q01DX001 (ip), vehicle: saline with Tween-80): 102 % of control
- T/C (dose: 50.0 mg/kg/injection, schedule: Q01DX001 (ip), vehicle: saline with Tween-80): 101 % of control
- T/C (dose: 50.0 mg/kg/injection, schedule: Q04DX003 (ip), vehicle: saline with Tween-80): 108 % of control
- T/C [5]: 98 % of control

Compound: CCN(CC)Cc1nc2nc(Cl)c(Cl)nc2[nH]1
- T/C (dose: 25.0 mg/kg/injection, schedule: Q01DX009 (ip), vehicle: saline with Tween-80): 97 % of control
- T/C (dose: 50.0 mg/kg/injection, schedule: Q01DX009 (ip), vehicle: saline with Tween-80): 105 % of control
- T/C [5]: 99 % of control

Compound: CCOC(=O)OC1CC/C(=N\N=C(N)N)C1 (stereo not drawn)
- T/C (dose: 15.0 mg/kg/injection, schedule: Q01DX Z (ip), vehicle: methylcellulose (MC)): 110 % of control
- T/C (dose: 30.0 mg/kg/injection, schedule: Q01DX Z (ip), vehicle: methylcellulose (MC)): 96 % of control
- T/C (dose: 120.0 mg/kg/injection, schedule: Q01DX Z (ip), vehicle: methylcellulose (MC)): 92 % of control

Compound: CC(=O)OCC1OC(N2C(=O)/C(=C(/C)c3ccccn3)SC2=S)C(OC(C)=O)C(OC(C)=O)C1OC(C)=O (stereo not drawn)
- T/C (dose: 25.0 mg/kg/injection, schedule: Q01DX005 (ip), vehicle: other): 92 % of control
- T/C (dose: 50.0 mg/kg/injection, schedule: Q01DX005 (ip), vehicle: other): 97 % of control
- T/C (dose: 100.0 mg/kg/injection, schedule: Q01DX005 (ip), vehicle: other): 94 % of control
- T/C (dose: 200.0 mg/kg/injection, schedule: Q01DX005 (ip), vehicle: other): 96 % of control
- T/C (dose: 400.0 mg/kg/injection, schedule: Q01DX005 (ip), vehicle: other): 96 % of control

Compound: COc1ccc2nc(NC3=NCCO3)sc2c1
- T/C [6]: 98 % of control
- T/C [7]: 94 % of control
- T/C [8]: 93 % of control

Compound: Cc1ccc(NC(Nc2ccc(C)c(Cl)c2)C(Cl)(Cl)Cl)cc1Cl
- T/C [6]: 96 % of control
- T/C [9]: 92 % of control
- T/C [7]: 92 % of control
- T/C [10]: 118 % of control
- T/C [8]: 89 % of control
- T/C (dose: 400.0 mg/kg/injection, schedule: Q04DX003 (ip), vehicle: Klucel (hydroxypropylcellulose) (HPC)): 103 % of control

Compound: CC1(C)CCC(C)(C)C(O)C1O (stereo not drawn)
- T/C [3]: 92 % of control
- T/C [4]: 105 % of control
- T/C (dose: 400.0 mg/kg/injection, schedule: Q04DX002 (ip), vehicle: Klucel (hydroxypropylcellulose) (HPC)): 118 % of control

Compound: CCC12CCC(=O)NC1Cc1[nH]c3c(OC)cccc3c1C2 (stereo not drawn)
- T/C (dose: 100.0 mg/kg/injection, schedule: Q01DX009 (ip), vehicle: saline sonified): 93 % of control
- T/C (dose: 200.0 mg/kg/injection, schedule: Q01DX009 (ip), vehicle: saline sonified): 91 % of control
- T/C (dose: 400.0 mg/kg/injection, schedule: Q01DX009 (ip), vehicle: saline sonified): 91 % of control

Compound: CC(=O)Nc1cccc2ccccc12
- T/C [5]: 97 % of control
- T/C (dose: 200.0 mg/kg/injection, schedule: Q04DX003 (ip), vehicle: saline with Tween-80): 101 % of control
- T/C (dose: 400.0 mg/kg/injection, schedule: Q04DX003 (ip), vehicle: saline with Tween-80): 100 % of control

Compound: Cc1ccc(NC(=S)Nc2ccccc2)cc1
- T/C [9]: 97 % of control
- T/C [10]: 107 % of control

Compound: O=C1NC(=O)C2C3CCC(C3)C12 (stereo not drawn)
- T/C (dose: 6.25 mg/kg/injection, schedule: Q04DX003 (ip), vehicle: saline): 105 % of control
- T/C [1]: 102 % of control
- T/C [2]: 102 % of control

Compound: COc1cc(C)c(C)cc1/C(C)=C(/C)C(=O)O (tested in a mixture with another compound)
- T/C (dose: 100.0 mg/kg/injection, schedule: Q01DX001 (ip), vehicle: saline with Tween-80): 100 % of control
- T/C (dose: 200.0 mg/kg/injection, schedule: Q01DX001 (ip), vehicle: saline with Tween-80): 100 % of control
- T/C (dose: 400.0 mg/kg/injection, schedule: Q01DX001 (ip), vehicle: saline with Tween-80): 103 % of control

Compound: CN1CCCC(OC(=O)N(C)C)C1 (stereo not drawn)
- T/C (dose: 100.0 mg/kg/injection, schedule: Q04DX003 (ip), vehicle: saline): 98 % of control
- T/C (dose: 200.0 mg/kg/injection, schedule: Q04DX003 (ip), vehicle: saline): 98 % of control
- T/C (dose: 400.0 mg/kg/injection, schedule: Q04DX003 (ip), vehicle: saline): 98 % of control

Compound: CC1CC(C)(C)OC(C(C)C)O1 (stereo not drawn)
- T/C (dose: 50.0 mg/kg/injection, schedule: Q01DX009 (ip), vehicle: acetone): 100 % of control
- T/C (dose: 75.0 mg/kg/injection, schedule: Q01DX001 (ip), vehicle: acetone): 95 % of control
- T/C (dose: 100.0 mg/kg/injection, schedule: Q01DX009 (ip), vehicle: acetone): 97 % of control
- T/C (dose: 150.0 mg/kg/injection, schedule: Q01DX001 (ip), vehicle: acetone): 92 % of control
- T/C (dose: 200.0 mg/kg/injection, schedule: Q01DX009 (ip), vehicle: acetone): 94 % of control
- T/C (dose: 300.0 mg/kg/injection, schedule: Q01DX001 (ip), vehicle: acetone): 87 % of control

Compound: CCC/C=C(\C)C(C)(C#N)C(=O)OCC (stereo not drawn)
- T/C (dose: 75.0 mg/kg/injection, schedule: Q01DX001 (ip), vehicle: other): 112 % of control
- T/C (dose: 150.0 mg/kg/injection, schedule: Q01DX001 (ip), vehicle: other): 98 % of control
- T/C (dose: 300.0 mg/kg/injection, schedule: Q01DX001 (ip), vehicle: other): 110 % of control

Compound: Cc1cnc(Cl)[nH]1 (tested in a mixture with another compound)
- T/C (dose: 100.0 mg/kg/injection, schedule: Q04DX002 (ip), vehicle: saline with Tween-80): 100 % of control
- T/C (dose: 200.0 mg/kg/injection, schedule: Q04DX002 (ip), vehicle: saline with Tween-80): 113 % of control
- T/C (dose: 400.0 mg/kg/injection, schedule: Q04DX002 (ip), vehicle: saline with Tween-80): 113 % of control

Compound: CC(=O)Nc1ccc(S(=O)(=O)Nc2cc(C)ccc2C)cc1
- T/C [6]: 94 % of control
- T/C [7]: 103 % of control
- T/C [8]: 103 % of control

Compound: CC(=O)c1cccc(NC(=O)Nc2cccc(O)c2)c1
- T/C [6]: 101 % of control
- T/C [7]: 97 % of control
- T/C [8]: 101 % of control
